Read-outs that look alike come from different tables or passages of the source.
How the values were obtained:
PC-9 = experiment: Cell proliferation assay, PC-9 cells (CellTiter-Glo, 72 hours); type: cell-based; conditions: PC9 cells
Outline: (§1)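 Luminescent viable-cell counts were taken on a day 0 plate at dosing and again at endpoint. Proliferation was calculated as (sample − G0)/(DMSO − G0). Seeding was 5000 Ba/F3 or 500 PC-9 cells per well in RPMI1640, followed by overnight attachment and serial compound dilutions. The GI50 was fitted.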

[1] = system: Ba/F3 cells expressing EGFR mutations; experiment: Cell proliferation assay, Ba/F3 cells expressing EGFR mutations (CellTiter-Glo, 72 hours); type: cell-based
Outline: as §1

A-431 = experiment: Cell proliferation GI50, A-431 cells (Table 6); type: cell-based; conditions: Homo sapiens, A-431, A-431 cells
Procedure: [Worded in the source for another cell line; this cell line is reported under the same test.] Ba/F3 cells expressing EGFR mutations were seeded in 384-well plates at 5000 cells/well in RPMI1640 medium containing […]. PC-9 at 500 cells/well was seeded into 384-well plates in RPMI1640 medium with 10% FBS. After overnight incubation, the assay plates were dosed with compounds at a series of concentrations. Alongside dosing the assay plates, the day 0 plate was processed using CellTiter-Glo® Luminescent Cell Viability Assay (Promega) to measure the number of viable cells (G0). The assay plates were further incubated for 72 hours and the number of viable cells (G3) was measured. The percentage of proliferation was calculated as: […]=100×(G3 value of sample well−G0 value)/(G3 value of DMSO control−G0 value). The concentration of compound producing 50% proliferation inhibition (GI50) was further calculated in best-fit curves using XLFit software. N/A=not available.

EGFR (d746-750 C797S) = biological target: T1, EGFR (d746-750 C797S) (Homo sapiens, UniProt P00533, C797S/DEL746-750); experiment: Inhibition of EGFR (d746-750 C797S) biochemical enzymatic activity (HTRF); conditions: 1 mM ATP
T1 construct: purchased signalchem
Outline: (§2)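 Phosphorylation of TK Substrate-biotin (1 μM) was measured at 1 mM ATP over a 1 h room-temperature incubation with serially varied compound. Detection was by HTRF ratio and analysis by 4PL fit to IC50.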

EGFR[T790M/C797S/L858R] = biological target: T2, EGFR[T790M/C797S/L858R] (Homo sapiens, UniProt P00533, C797S/L858R/T790M); experiment: Inhibition of EGFR[T790M/C797S/L858R] biochemical enzymatic activity (HTRF); conditions: 1 mM ATP
T2 construct: purchased Carna Bio
Outline: as §2

EGFR Exon19Del/T790M = biological target: T3, EGFR Exon19Del/T790M (Homo sapiens, UniProt P00533, DEL746-750/T790M); experiment: Inhibition of EGFR Exon19Del/T790M biochemical enzymatic activity (HTRF); conditions: 1 mM ATP
T3 construct: purchased Carna Bio
Outline: as §2

EGFR L858R/T790M = biological target: T4, EGFR L858R/T790M (Homo sapiens, UniProt P00533, L858R/T790M); experiment: Inhibition of EGFR L858R/T790M biochemical enzymatic activity (HTRF); conditions: 1 mM ATP
T4 construct: purchased Carna Bio
Outline: as §2

EGFR Exon19Del = biological target: T5, EGFR Exon19Del (Homo sapiens, UniProt P00533, DEL746-750); experiment: Inhibition of EGFR Exon19Del biochemical enzymatic activity (HTRF); conditions: read-out: IC50 @Del19
T5 construct: purchased Carna Bio
Outline: as §2

EGFR (C797S L858R) = biological target: T6, EGFR (C797S L858R) (Homo sapiens, UniProt P00533, C797S/L858R); experiment: Inhibition of EGFR (C797S L858R) biochemical enzymatic activity (HTRF); conditions: 1 mM ATP
T6 construct: purchased signalchem
Outline: as §2

EGFR wild type = biological target: T7, EGFR wild type (Homo sapiens, UniProt P00533); experiment: Inhibition of EGFR wild type biochemical enzymatic activity (HTRF); conditions: 1 mM ATP
T7 construct: purchased Carna Bio
Outline: as §2

[2] = biological target: T8, EGFR[T790M/C797S/d746-750] (Homo sapiens, UniProt P00533, C797S/DEL746-750/T790M); experiment: Inhibition of EGFR[T790M/C797S/d746-750] biochemical enzymatic activity (HTRF)
T8 construct: purchased Carna Bio
Outline: as §2

EGFR L858R = biological target: T9, EGFR L858R (Homo sapiens, UniProt P00533, L858R); experiment: Inhibition of EGFR L858R biochemical enzymatic activity (HTRF); conditions: 1 mM ATP
T9 construct: purchased Carna Bio
Outline: as §2

[3] = CellTiter-Glo, read-out: PC9 GI50
[4] = BaF3 cells, EGFR DEL19-C797S, CellTiter-Glo, read-out: DEL19-C797S/BaF3 GI50
[5] = BaF3 cells, EGFR DEL19-T790-C797S, CellTiter-Glo, read-out: DEL19-T790-C797S/BaF3 GI50
[6] = BaF3 cells, EGFR L858R, CellTiter-Glo, read-out: L858R/BaF3 GI50
[7] = BaF3 cells, EGFR L858R-C797S, CellTiter-Glo, read-out: L858R-C797S/BaF3 GI50
[8] = BaF3 cells, EGFR L858R-T790-C797S, CellTiter-Glo, read-out: L858R-T790-C797S/BaF3 GI50
[9] = BaF3 cells, EGFR L858R-T790M, CellTiter-Glo, read-out: L858R-T790M/BaF3 GI50
[10] = EGFR DEL19-T790M, CellTiter-Glo, read-out: DEL19-T790M GI50
[11] = EGFR Del19-C797S, 1 h, room temperature, read-out: IC50 (nM) @Del19-C797S
[12] = EGFR T790M-C797S-L858R, 1 h, room temperature, read-out: IC50 (nM) @T790M- C797S - L858R
[13] = EGFR Del19-T790M, 1 h, room temperature, read-out: IC50 (nM) @Del19-T790M
[14] = EGFR L858R-T790M, 1 h, room temperature, read-out: IC50 (nM) @L858R-T790M
[15] = EGFR Del19, 1 mM ATP, 1 h, room temperature
[16] = EGFR L858-C797S, 1 h, room temperature, read-out: IC50 (nM) @L858-C797S
[17] = EGFR WT, 1 h, room temperature, read-out: IC50 (nM) @WT
[18] = EGFR T790M-C797S-Del19, 1 mM ATP, 1 h, room temperature, read-out: IC50 (nM) @T790M - C797S - Del19
[19] = 1 h, room temperature, read-out: IC50 (nM) @L858R

T3 sequence (P00533 with tags, fused parts or gaps DEL746-750/T790M limits assumed): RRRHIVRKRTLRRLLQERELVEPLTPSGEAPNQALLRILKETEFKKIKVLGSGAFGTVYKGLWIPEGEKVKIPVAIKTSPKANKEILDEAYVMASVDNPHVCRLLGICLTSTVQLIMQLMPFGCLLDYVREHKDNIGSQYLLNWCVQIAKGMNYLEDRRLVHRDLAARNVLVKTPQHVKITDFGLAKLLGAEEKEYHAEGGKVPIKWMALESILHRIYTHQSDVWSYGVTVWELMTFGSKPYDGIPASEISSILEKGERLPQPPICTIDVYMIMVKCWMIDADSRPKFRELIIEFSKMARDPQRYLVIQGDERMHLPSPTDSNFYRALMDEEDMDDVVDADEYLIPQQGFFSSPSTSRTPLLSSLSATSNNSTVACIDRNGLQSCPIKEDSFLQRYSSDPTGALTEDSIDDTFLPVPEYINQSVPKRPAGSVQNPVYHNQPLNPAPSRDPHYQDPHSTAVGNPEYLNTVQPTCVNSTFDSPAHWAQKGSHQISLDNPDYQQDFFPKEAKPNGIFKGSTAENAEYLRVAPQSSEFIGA
T2 sequence (P00533 25-1210 T790M/C797S/L858R): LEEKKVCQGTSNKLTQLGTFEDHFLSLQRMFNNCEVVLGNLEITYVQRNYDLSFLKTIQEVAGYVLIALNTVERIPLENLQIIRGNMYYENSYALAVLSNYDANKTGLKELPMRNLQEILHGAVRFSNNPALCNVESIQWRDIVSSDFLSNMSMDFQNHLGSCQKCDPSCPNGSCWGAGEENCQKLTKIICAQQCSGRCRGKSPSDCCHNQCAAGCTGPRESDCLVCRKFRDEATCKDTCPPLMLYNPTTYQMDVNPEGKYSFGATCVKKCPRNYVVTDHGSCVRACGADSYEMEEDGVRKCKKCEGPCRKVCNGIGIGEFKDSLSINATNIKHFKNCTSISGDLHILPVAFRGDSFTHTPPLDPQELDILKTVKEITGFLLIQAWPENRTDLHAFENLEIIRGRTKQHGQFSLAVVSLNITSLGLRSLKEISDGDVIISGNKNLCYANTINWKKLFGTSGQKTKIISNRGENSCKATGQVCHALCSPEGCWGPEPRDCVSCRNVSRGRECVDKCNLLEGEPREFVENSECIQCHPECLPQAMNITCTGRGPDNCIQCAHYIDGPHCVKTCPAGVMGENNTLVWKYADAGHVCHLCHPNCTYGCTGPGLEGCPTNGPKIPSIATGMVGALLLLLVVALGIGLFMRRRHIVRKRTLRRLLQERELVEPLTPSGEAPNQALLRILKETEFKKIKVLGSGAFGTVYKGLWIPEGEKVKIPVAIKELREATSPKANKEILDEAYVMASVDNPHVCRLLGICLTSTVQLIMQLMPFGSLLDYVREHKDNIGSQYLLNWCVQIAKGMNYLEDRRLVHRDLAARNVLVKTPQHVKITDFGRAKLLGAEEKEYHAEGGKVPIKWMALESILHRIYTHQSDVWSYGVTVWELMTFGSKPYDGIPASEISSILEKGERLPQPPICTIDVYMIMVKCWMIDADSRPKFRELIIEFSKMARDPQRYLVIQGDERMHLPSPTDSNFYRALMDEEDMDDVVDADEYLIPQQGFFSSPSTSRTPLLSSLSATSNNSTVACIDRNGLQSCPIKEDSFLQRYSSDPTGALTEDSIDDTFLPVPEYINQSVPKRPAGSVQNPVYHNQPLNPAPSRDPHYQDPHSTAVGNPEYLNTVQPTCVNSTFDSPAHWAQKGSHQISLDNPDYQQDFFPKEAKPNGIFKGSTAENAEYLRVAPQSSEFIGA
T8 sequence (P00533 with tags, fused parts or gaps DEL746-750/T790M/C797S limits assumed): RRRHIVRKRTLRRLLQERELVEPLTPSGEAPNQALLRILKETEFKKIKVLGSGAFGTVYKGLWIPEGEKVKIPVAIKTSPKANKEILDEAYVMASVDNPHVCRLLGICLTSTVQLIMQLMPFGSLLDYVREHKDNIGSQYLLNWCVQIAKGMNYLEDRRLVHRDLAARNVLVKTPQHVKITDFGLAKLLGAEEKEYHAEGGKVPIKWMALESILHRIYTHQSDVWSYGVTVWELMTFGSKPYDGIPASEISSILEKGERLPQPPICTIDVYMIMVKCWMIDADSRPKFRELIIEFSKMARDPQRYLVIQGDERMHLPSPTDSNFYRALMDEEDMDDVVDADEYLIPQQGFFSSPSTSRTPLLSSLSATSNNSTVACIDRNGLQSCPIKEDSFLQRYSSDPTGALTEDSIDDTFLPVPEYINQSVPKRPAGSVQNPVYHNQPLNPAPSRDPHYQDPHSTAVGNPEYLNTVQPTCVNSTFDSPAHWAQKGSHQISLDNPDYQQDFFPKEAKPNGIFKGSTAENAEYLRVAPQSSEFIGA
T6 sequence (P00533 25-1210 C797S/L858R): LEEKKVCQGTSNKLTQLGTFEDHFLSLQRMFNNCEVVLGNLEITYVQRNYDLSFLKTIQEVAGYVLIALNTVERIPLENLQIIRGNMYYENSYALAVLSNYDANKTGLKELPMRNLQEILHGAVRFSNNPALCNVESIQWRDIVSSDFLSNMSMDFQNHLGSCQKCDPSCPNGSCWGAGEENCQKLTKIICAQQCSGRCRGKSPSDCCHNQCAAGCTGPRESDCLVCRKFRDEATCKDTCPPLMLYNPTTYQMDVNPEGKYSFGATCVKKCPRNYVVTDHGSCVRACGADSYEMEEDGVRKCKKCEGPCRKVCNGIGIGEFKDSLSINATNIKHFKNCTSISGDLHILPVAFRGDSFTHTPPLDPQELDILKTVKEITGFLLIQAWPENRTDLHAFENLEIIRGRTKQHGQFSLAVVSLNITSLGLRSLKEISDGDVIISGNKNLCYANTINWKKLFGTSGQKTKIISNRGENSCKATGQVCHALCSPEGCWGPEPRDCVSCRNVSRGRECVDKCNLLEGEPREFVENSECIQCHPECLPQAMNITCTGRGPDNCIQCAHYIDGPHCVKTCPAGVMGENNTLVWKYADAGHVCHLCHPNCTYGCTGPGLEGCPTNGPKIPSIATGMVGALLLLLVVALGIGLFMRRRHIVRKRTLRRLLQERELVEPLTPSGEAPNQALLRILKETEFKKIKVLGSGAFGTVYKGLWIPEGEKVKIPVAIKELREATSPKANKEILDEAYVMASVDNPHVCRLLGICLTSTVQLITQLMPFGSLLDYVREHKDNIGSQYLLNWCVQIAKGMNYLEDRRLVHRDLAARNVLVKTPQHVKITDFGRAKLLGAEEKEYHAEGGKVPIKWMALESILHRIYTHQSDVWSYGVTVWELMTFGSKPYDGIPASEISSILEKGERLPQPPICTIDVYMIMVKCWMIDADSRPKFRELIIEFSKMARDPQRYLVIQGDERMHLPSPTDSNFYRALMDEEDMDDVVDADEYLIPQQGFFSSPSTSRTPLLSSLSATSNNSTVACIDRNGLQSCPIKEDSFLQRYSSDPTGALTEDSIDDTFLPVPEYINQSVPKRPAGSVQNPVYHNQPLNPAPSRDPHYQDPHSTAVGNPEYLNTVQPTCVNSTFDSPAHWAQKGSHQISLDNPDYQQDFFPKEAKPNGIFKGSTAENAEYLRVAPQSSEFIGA
T5 sequence (P00533 with tags, fused parts or gaps DEL746-750 limits assumed): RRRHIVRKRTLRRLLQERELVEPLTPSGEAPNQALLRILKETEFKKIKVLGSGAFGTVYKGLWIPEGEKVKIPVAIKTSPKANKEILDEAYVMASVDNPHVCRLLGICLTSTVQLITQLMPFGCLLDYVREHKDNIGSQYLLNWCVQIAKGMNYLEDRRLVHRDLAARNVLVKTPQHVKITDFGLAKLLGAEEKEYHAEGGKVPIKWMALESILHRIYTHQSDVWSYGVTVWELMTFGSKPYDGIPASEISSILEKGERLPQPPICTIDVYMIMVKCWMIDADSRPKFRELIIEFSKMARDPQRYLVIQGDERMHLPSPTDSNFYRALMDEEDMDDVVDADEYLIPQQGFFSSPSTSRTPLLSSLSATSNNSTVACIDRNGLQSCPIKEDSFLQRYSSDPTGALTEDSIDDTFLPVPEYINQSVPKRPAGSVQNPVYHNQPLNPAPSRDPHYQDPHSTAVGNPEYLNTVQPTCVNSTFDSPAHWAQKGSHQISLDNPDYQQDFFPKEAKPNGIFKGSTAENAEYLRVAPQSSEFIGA
T1 sequence (P00533 with tags, fused parts or gaps DEL746-750/C797S limits assumed): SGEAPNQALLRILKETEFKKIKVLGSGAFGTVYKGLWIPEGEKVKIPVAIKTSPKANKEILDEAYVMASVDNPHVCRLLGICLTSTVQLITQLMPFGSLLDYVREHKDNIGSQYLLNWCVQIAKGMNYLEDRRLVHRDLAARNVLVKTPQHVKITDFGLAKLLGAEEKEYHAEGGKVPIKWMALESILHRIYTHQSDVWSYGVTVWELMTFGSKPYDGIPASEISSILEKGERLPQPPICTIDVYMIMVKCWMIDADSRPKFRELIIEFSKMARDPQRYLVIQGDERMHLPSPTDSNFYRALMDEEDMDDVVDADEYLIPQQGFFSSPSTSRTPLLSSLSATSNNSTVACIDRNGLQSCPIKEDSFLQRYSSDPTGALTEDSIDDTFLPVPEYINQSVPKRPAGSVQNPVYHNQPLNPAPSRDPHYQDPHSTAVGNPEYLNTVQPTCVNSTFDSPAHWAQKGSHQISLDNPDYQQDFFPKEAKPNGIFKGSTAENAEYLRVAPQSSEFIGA

SMILES	GI50 (PC-9; [3]) [nM]	GI50 [1, 4] [nM]	GI50 [1, 5] [nM]	GI50 [1, 6] [nM]	GI50 [1, 7] [nM]	GI50 [1, 8] [nM]	GI50 [1, 9] [nM]	GI50 [1, 10] [nM]	IC50 (EGFR (d746-750 C797S); [11]) [nM]	IC50 (EGFR[T790M/C797S/L858R]; [12]) [nM]	IC50 (EGFR Exon19Del/T790M; [13]) [nM]	IC50 (EGFR L858R/T790M; [14]) [nM]	IC50 (EGFR Exon19Del; [15]) [nM]	IC50 (EGFR (C797S L858R); [16]) [nM]	IC50 (EGFR wild type; [17]) [nM]	IC50 [2, 18] [nM]	IC50 (EGFR L858R; [19]) [nM]	also measured
CN(C)C1CN(c2ccc3nc4n(c3c2)C23CCC(CN(CCOc5c(cnn5C)-c5cc(cn(C)c5=O)C(=O)N4)C2)C3)CC1(F)F (single isomer, unassigned) [Example A99A]	3090	966	2900	372	1560	874	2630	1250	–	–	–	–	–	–	–	–	–	GI50 (A-431): 4930 nM
CN1CCC2(CCN(c3ccc4nc5n(c4c3)C34CCC(CN(CCOc6c(cnn6C)-c6cc(cn(C)c6=O)C(=O)N5)C3)C4)CC2)C1 (single isomer, unassigned) [Example A82A]	92	96	186	108	76	129	137	200	226	> 5000	1410	> 5000	310	2140	341	629	1210	–
C[C@@H]1CCCOc2c(cnn2CC(F)(F)F)-c2cc(cn(C)c2=O)C(=O)Nc2nc3ccc(N4CCN(C)CC4)cc3n2C1 [Example A20, (11R)-11,26-Dimethyl-16-(4-methylpiperazin-1-yl)-5-(2,2,2-trifluoroethyl)-7-oxa-4,5,13,20,22,26-hexaazapentacyclo[22.3.1.0^{2,6}.0^{13,21}.0^{14,19}]octacosa-1(28),2(6),3,14,16,18,20,24-octaene-23,27-dione]	–	–	–	–	–	–	–	–	42	76	41	82	86	132	> 5000	40	301	GI50 (PC-9; Homo sapiens, PC-9, 72 h, CellTiter-Glo, read-out: PC9 GI50): 145 nM; GI50 ([1]; Mus musculus, BaF3, 72 h, BaF3 cells, EGFR DEL19-C797S, CellTiter-Glo, read-out: DEL19-C797S/BaF3 GI50): 17.1 nM; GI50 ([1]; Mus musculus, BaF3, 72 h, BaF3 cells, EGFR DEL19-T790-C797S, CellTiter-Glo, read-out: DEL19-T790-C797S/BaF3 GI50): 204 nM; GI50 ([1]; Mus musculus, BaF3, 72 h, BaF3 cells, EGFR L858R, CellTiter-Glo, read-out: L858R/BaF3 GI50): 89 nM; GI50 ([1]; Mus musculus, BaF3, 72 h, BaF3 cells, EGFR L858R-C797S, CellTiter-Glo, read-out: L858R-C797S/BaF3 GI50): 87 nM; GI50 ([1]; Mus musculus, BaF3, 72 h, BaF3 cells, EGFR L858R-T790-C797S, CellTiter-Glo, read-out: L858R-T790-C797S/BaF3 GI50): 51 nM; GI50 ([1]; Mus musculus, BaF3, 72 h, BaF3 cells, EGFR L858R-T790M, CellTiter-Glo, read-out: L858R-T790M/BaF3 GI50): 39 nM; GI50 ([1]; Mus musculus, BaF3, 72 h, EGFR DEL19-T790M, CellTiter-Glo, read-out: DEL19-T790M GI50): 226 nM
Cc1cc2cc(n1)-c1cnn(C)c1OCCN1CCOCC(C1)n1c(nc3ccccc31)NC2=O (single isomer, unassigned) [Example B7A, 15,21-dimethyl-23,29-dioxa-2,9,11,16,20,21,26-heptaazahexacyclo[24.4.1.1^{13,17}.0^{2,10}.0^{3,8}.0^{18,22}]dotriaconta-3,5,7,9,13(32),14,16,18(22),19-nonaen-12-one]	–	–	–	–	–	–	–	–	–	–	–	–	–	–	–	–	–	IC50 (EGFR (d746-750 C797S); EGFR (d746-750 C797S), 1 h at room temperature, read-out: IC50 @Del19-C797S): 611 nM; IC50 (EGFR[T790M/C797S/L858R]; EGFR[T790M/C797S/L858R], 1 h at room temperature, read-out: IC50 @T790M- C797S - L858R): 1650 nM; IC50 (EGFR Exon19Del/T790M; EGFR Exon19Del/T790M, 1 h at room temperature, read-out: IC50 @Del19-T790M): 104 nM; IC50 (EGFR L858R/T790M; EGFR L858R/T790M, 1 h at room temperature, read-out: IC50 @L858R-T790M): 2630 nM; GI50 (PC-9; Homo sapiens, PC-9, 72 h, read-out: GI50 PC9): 427 nM; IC50 (EGFR Exon19Del; EGFR Exon19Del, 1 mM ATP, 1 h at room temperature): 1210 nM; IC50 (EGFR (C797S L858R); EGFR (C797S L858R), 1 h at room temperature, read-out: IC50 @L858-C797S): > 5000 nM; GI50 ([1]; Mus musculus, BaF3, 72 h, BaF3 cells, EGFR DEL19 - C797S, read-out: GI50 DEL19 - C797S/BaF3): 228 nM; GI50 ([1]; Mus musculus, BaF3, 72 h, BaF3 cells, EGFR DEL19 - T790-C797S, read-out: GI50 DEL19 - T790-C797S/BaF3): 186 nM; GI50 ([1]; Mus musculus, BaF3, 72 h, BaF3 cells, EGFR L858R - C797S, read-out: GI50 L858R - C797S/BaF3): 189 nM; GI50 ([1]; Mus musculus, BaF3, 72 h, BaF3 cells, EGFR L858R - T790-C797S, read-out: GI50 L858R - T790-C797S/BaF3): 295 nM; GI50 ([1]; Mus musculus, BaF3, 72 h, BaF3 cells, EGFR L858R - T790M, read-out: GI50 L858R - T790M/BaF3): 383 nM; GI50 ([1]; Mus musculus, BaF3, 72 h, BaF3 cells, EGFR L858R, read-out: GI50 L858R/BaF3): 934 nM; GI50 ([1]; Mus musculus, BaF3, 72 h, EGFR DEL19 - T790M, read-out: GI50 DEL19 - T790M): 265 nM; IC50 (EGFR wild type; EGFR wild type, 1 h at room temperature, read-out: IC50 @WT): > 5000 nM; IC50 ([2]; EGFR[T790M/C797S/d746-750], 1 mM ATP, 1 h at room temperature, read-out: IC50 @T790M - C797S - Del19): 62 nM; IC50 (EGFR L858R; 1 h at room temperature, read-out: IC50 @L858R): > 5000 nM

From patent US20260365670A1, “EGFR INHIBITORS AND USES THEREOF” (DIZAL (JIANGSU) PHARMACEUTICAL CO., LTD., priority 2022, published 2026)
